# Measurements reported in patent publication US11752159B2, “Compositions and methods for suppressing or reducing systemic immune response in a subject” (THE TRUSTEES OF THE UNIVERSITY OF PENNSYLVANIA, priority 2015, dated 2023).
# Assays:
# [1] = tested on: regulatory T cells (Tregs); test: Kinetics of systemic Treg levels after topical MC903 treatment; assay type: in vivo, mice; details: Day 15, after cessation of topical treatment
# Excerpt: (§1) FIG. 3A-3C comprise graphs illustrating data derived from topical treatment of B6 mice with EtOH or MC903 (2 nmol) until […]. Mice were taken at different time points post treatment initiation as indicated. FIG. 3A is a graph illustrating the percentage of Tregs out of CD4+ T cells in the spleen and blood of B6 mice over 18 days. FIG. 3B illustrates the absolute numbers of Tregs in the spleen of B6 mice over 18 days. FIG. 3C illustrates the serum thymic stromal lymphopoietin (TSLP) level change over time in B6 mice over 18 days.
# (§2) Next, the kinetics of the systemic increase in Treg levels was investigated after topical MC903 treatment (treatment stopped on Day 7). The absolute number and the fraction of Tregs increased to a peak between days 6 and 9 and gradually declined thereafter in the spleen and the blood of MC903-treated mice (FIGS. 3A-3B). Circulating TSLP levels peaked at Day 6 and fell abruptly by Day 9 (FIG. 3C).
# [2] = tested on: thymic stromal lymphopoietin (TSLP); test: Circulating (serum) TSLP level over time after topical MC903; assay type: in vivo, mice; details: topical MC903, treatment stopped on Day 7; fell abruptly by Day 9
# Excerpt: as §1, §2
# [3] = tested on: ApoE KO mice; test: ApoE KO mouse model of atherosclerosis, topical MC903; assay type: in vivo; details: high fat Western diet, topical 3 times/week every other week for 10 weeks
# Excerpt: FIGS. 6A-6B comprise graphs illustrating data derived from topical treatment of ApoE KO mice fed a high-fat Western diet with EtOH or MC903 (2 nmol) 3 times/week every other week for 10 weeks. FIG. 6A illustrates the total cholesterol levels at baseline, at week 3, and week 10 of ApoE KO mice. FIG. 6B illustrates the atherosclerotic plaques difference among ApoE KO mice. The full length of the aorta was removed from the mice at week 10 and stained with Oil Red O dye to detect atherosclerotic plaques. The area occupied by the plaque was calculated and divided by the total area of the aorta (% lesion area). N=7 mice/group. * indicates significance of p<0.01 by T-test.
# The effects of topical application of MC903 on atherosclerotic plaques were investigated. Atherosclerosis is a disease condition where lipid deposition occurs in arterial walls, leading to obstruction of blood flow. Ultimately, these lesions cause morbidity and mortality by affecting blood flow to the heart (myocardial infarction; angina) or the brain (stroke). Although these lesions are formed by cholesterol deposits in patients who have hypercholesterolemia, immune activation is necessary for plaque progression, and Tregs are implicated in dampening the progression of atherosclerosis. It is contemplated that topical MC903 treatment can attenuate plaque progression in atherosclerosis. […]
# [4] = tested on: Tregs and conventional CD4+ T cells (Tconvs); test: BrdU incorporation in splenic Tregs and conventional T cells; assay type: in vivo, mice; details: spleen, Day 8, topical 2 nmol daily
# Excerpt: FIGS. 4A-4B comprise graphs illustrating data derived from topical treatment of B6 mice with EtOH or MC903 (2 nmol) daily and BrdU (intraperitoneal injection as a loading dose, followed by administration of drinking water) for the last 3 days. FIG. 4A illustrates Bromodeoxyuridine (BrdU) incorporation in Tregs on Day 8 in the spleen of B6 mice. FIG. 4B illustrates BrdU incorporation in conventional T cells (Tconvs) on Day 8 in the spleen of B6 mice.
# as §2
# [5] = tested on: Tregs; test: Treg % in blood and spleen after topical vitamin D3 analogs; assay type: in vivo, mice; details: topical MC903, summary statement of Example 6
# Excerpt: FIGS. 10A-10B comprise bar graphs illustrating data derived from topically treating mice with EtOH or EB1089 (0.04 nmol/ear) for 5 days and bleeding them on Day 7. Treg % from (FIG. 10A) blood and (FIG. 10B) spleen are illustrated. N=3 mice/group. *p<0.01 by Student t-test.
# VDR stimulation of keratinocytes led to TSLP production, which in certain embodiments caused increase in Treg numbers. The effects of two vitamin D3 analogs (22-Oxacalcitriol, also known as 22-OXA, and EB1089) on TSLP production and Treg numbers were evaluated. Similarly to MC903, 22-OXA and EB1089 were applied to the ear skin bilaterally at a dose of 2 nmol/ear dissolved in ethanol. After 5 days of treatment, the mice were bled and serum TSLP levels were measured. […] To avoid the toxic effect, the dose of 22-OXA and EB1089 was lowered to a point where morbidity and mortality of mice was not observed (0.4 nmol/ear for 22-OXA; 0.04 nmol/ear for EB1089). At this dose, no increase in TSLP level was detected in 22-OXA-treated mice (FIG. 9B).
# [6] = tested on: B6 mice; test: Experimental allergic encephalitis (EAE) mouse model of multiple sclerosis, topical MC903; assay type: in vivo; details: topical daily starting 1 day before disease induction, compared to EtOH-treated mice
# Description: FIG. 7 illustrates the clinical score difference among B6 mice topically treated with EtOH or MC903 daily for 2 weeks. The B6 mice were injected with myelin oligodendrocyte glycoprotein (MOG) peptide emulsified in complete Freund's adjuvant (CFA), then received Pertussis toxin intraperitoneally at the time of immunization and 48 h later. The mice were treated with topical EtOH or MC903 daily for 2 weeks. Mice were clinically scored on a five-point scale for signs of disease on the indicated days. N=8 mice/group. P=0.06 by two-way Analysis of variance (ANOVA). To test whether topical MC903 treatment was effective at treating multiple sclerosis (MS), the effect of MC903 in reducing clinical severity of a mouse model of MS known as experimental allergic encephalitis (EAE). Mice were topically treated daily with MC903 starting 1 day before disease induction. […] Thus, topical MC903 treatment might also be beneficial in the treatment of multiple sclerosis.
smiles,measurement,setting,value
"C=C1/C(=C\C=C2/CCC[C@]3(C)[C@@H]([C@H](C)/C=C/[C@@H](O)C4CC4)CC[C@@H]23)C[C@@H](O)C[C@@H]1O [MC903, 26,27-cyclo-22-ene-1α,24S-dihydroxyvitamin D3]",Treg levels versus EtOH-treated group by Day 15,[1],no differences
same,time of peak of circulating TSLP levels,[2],6 days
same,decrease of % of area occupied by the plaques in the aorta,[3],> 50%
same,total cholesterol levels,[3],did not alter
same,BrdU incorporation by Tregs,[4],enhanced
same,BrdU incorporation by conventional CD4+ T cells (Tconvs),[4],no significant increase
same,systemic Treg numbers,[5],increase systemic Treg numbers
same,clinical severity of EAE,[6],attenuated clinical severity
